Where two headings read alike, the source gives them in different places.
What was measured:
[1] = test system: P. falciparum male gametocytes; assay: P. falciparum Dual Gamete Formation Assay (PfDGFA), male readout (exflagellation); type: cell-based, Plasmodium falciparum NF54; details: for Activity: hit = >50% inhibition in male or female readout in at least 3 replicates, 0 = no class assigned
Procedure, shortened: (§1)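 NF54 mature gametocytes (d14), cpd 24 h 37°C hypoxic gas; trigger: xanthurenic acid ookinete medium + Cy3 anti-Pfs25, 4°C 4 min → 28°C 4 min. Male: exflagellation centres, brightfield x6. Female: Pfs25+ gametes, fluorescence, +24 h 28°C dark.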

[2] = test system: P. falciparum female gametocytes; assay: P. falciparum Dual Gamete Formation Assay (PfDGFA), female readout (Pfs25-positive female gametes); type: cell-based, Plasmodium falciparum NF54
Procedure, shortened: as §1

[3] = PfDGFA at 2µM, 24h preincubation with gametocytes prior to induction of gametogenesis, replicate R1
[4] = PfDGFA at 2µM, 24h preincubation with gametocytes prior to induction of gametogenesis, replicate R3
[5] = PfDGFA at 2µM, 24h preincubation with gametocytes prior to induction of gametogenesis, replicate R4
[6] = PfDGFA at 2µM, 24h preincubation, average of replicates
[7] = 2µM, 24h preincubation with gametocytes prior to induction of gametogenesis, average of replicates
[8] = 2µM, 24h preincubation with gametocytes prior to induction of gametogenesis, replicate R1
[9] = 2µM, 24h preincubation with gametocytes prior to induction of gametogenesis, replicate R3
[10] = 2µM, 24h preincubation with gametocytes prior to induction of gametogenesis, replicate R4
[11] = 2µM, 24h preincubation, hits selected on >50% inhibition in the male readout across replicates
[12] = PfDGFA at 2µM, 24h preincubation
[13] = 2µM, 24h preincubation, hits selected on >50% inhibition in the female readout across replicates
[14] = PfDGFA at 2µM, 24h preincubation with gametocytes, average of replicates
[15] = PfDGFA at 2µM, 24h preincubation with gametocytes, replicate R1
[16] = PfDGFA at 2µM, 24h preincubation with gametocytes, replicate R3
[17] = PfDGFA at 2µM, 24h preincubation with gametocytes, replicate R4
[18] = number of replicates with >50% inhibition in the male readout, 2µM
[19] = number of replicates with >50% inhibition in the female readout, 2µM

| SMILES | Average inhibition male (%) [1, 7] [%] | % inhibition male (individual replicates) R1 [1, 8] [%] | % inhibition male (individual replicates) R3 [1, 9] [%] | % inhibition male (individual replicates) R4 [1, 10] [%] | Average inhibition female (%) [2, 7] [%] | % inhibition female (individual replicates) R1 [2, 8] [%] | % inhibition female (individual replicates) R3 [2, 9] [%] | % inhibition female (individual replicates) R4 [2, 10] [%] | HitlevelM [1, 11] | Activity [1, 12] | HitlevelF [2, 13] | other results |
| --- | --- | --- | --- | --- | --- | --- | --- | --- | --- | --- | --- | --- |
| Cc1cc(CNCCCCCCCNCc2ccc(-c3ccccc3)cc2)ccc1O [TCMDC-140415] | – | – | – | – | – | – | – | – | – | – | – | % inhibition male (individual replicates) R1 [1, 3]: 37.4%; % inhibition male (individual replicates) R3 [1, 4]: 30.2%; % inhibition male (individual replicates) R4 [1, 5]: 70.9%; Average inhibition male (%) [1, 6]: 52.6%; % inhibition female (individual replicates) R1 [2, 3]: 15.4%; % inhibition female (individual replicates) R3 [2, 4]: -2.4%; % inhibition female (individual replicates) R4 [2, 5]: -10.0%; Average inhibition female (%) [2, 6]: 3.6% |
| NCc1cccc(-c2ccccc2CNC2CCN(Cc3ccccc3)CC2)c1.O=C(O)C(F)(F)F [TCMDC-140467] | 3.4 | -0.12 | -13.3 | 18.9 | 24.8 | 22.3 | 3.0 | 28.3 | – | – | – | HitlevelM ([1]; 2µM, 24h preincubation, number of replicates with >50% inhibition in the male readout): 0; HitlevelF ([2]; 2µM, 24h preincubation, number of replicates with >50% inhibition in the female readout): 0 |
| O=C(O)C(F)(F)F.c1ccc(CN2CCC(NCc3ccc(-c4cccc(CNC5CCCC5)c4)cc3)CC2)cc1 [TCMDC-140491] | 4.9 | 9.8 | – | -11.4 | 15.2 | 11.0 | 20.4 | 13.9 | 0 | 0 | 0 | – |
| CC(C)CNCc1ccc(-c2cccc(CN(CCN(C)C)C(=O)CCC3CCCC3)c2)cc1.O=C(O)C(F)(F)F [TCMDC-140553] | – | – | – | – | – | – | – | – | – | – | – | Average inhibition male (%) [1, 14]: 71.6%; % inhibition male (individual replicates) R1 [1, 15]: 58.5%; % inhibition male (individual replicates) R3 [1, 16]: 51.6%; % inhibition male (individual replicates) R4 [1, 17]: 94.9%; HitlevelM [1, 18]: 4; Average inhibition female (%) [2, 14]: 30.3%; % inhibition female (individual replicates) R1 [2, 15]: 23.2%; % inhibition female (individual replicates) R3 [2, 16]: 20.6%; % inhibition female (individual replicates) R4 [2, 17]: 42.3%; HitlevelF [2, 19]: 0 |
| CC(C)(CN)c1nc(-c2ccc(Br)c(O)c2)c(-c2ccncc2)[nH]1.Cl [TCMDC-140680] | – | – | – | – | – | – | – | – | – | – | – | Selectivity Ratio M ([1]; HepG2 Tox50 versus male IC50): 67.46; inhibition at 2 µM ([1]; Plasmodium falciparum, PfDGFA at 2µM, 24h preincubation with gametocytes, average of replicates, read-out: Average inhibition male (%)): 80.7%; inhibition at 2 µM ([1]; Plasmodium falciparum, PfDGFA at 2µM, 24h preincubation with gametocytes, replicate R1, read-out: % inhibition male (individual replicates) R1): 55.5%; inhibition at 2 µM ([1]; Plasmodium falciparum, PfDGFA at 2µM, 24h preincubation with gametocytes, replicate R2, read-out: % inhibition male (individual replicates) R2): 95.4%; inhibition at 2 µM ([1]; Plasmodium falciparum, PfDGFA at 2µM, 24h preincubation with gametocytes, replicate R3, read-out: % inhibition male (individual replicates) R3): 94%; inhibition at 2 µM ([1]; Plasmodium falciparum, PfDGFA at 2µM, 24h preincubation with gametocytes, replicate R4, read-out: % inhibition male (individual replicates) R4): 77.9%; IC50 ([1]; Plasmodium falciparum, PfDGFA, 24 h incubation with gametocytes before induction, exflagellation readout, read-out: Male IC50): 1480 nM; HitlevelM [1, 18]: 4; Selectivity ratio F ([2]; HepG2 Tox50 versus female IC50): 175.05; inhibition at 2 µM ([2]; Plasmodium falciparum, PfDGFA at 2µM, 24h preincubation with gametocytes, average of replicates, read-out: Average inhibition female (%)): 96%; inhibition at 2 µM ([2]; Plasmodium falciparum, PfDGFA at 2µM, 24h preincubation with gametocytes, replicate R1, read-out: % inhibition female (individual replicates) R1): 91.3%; inhibition at 2 µM ([2]; Plasmodium falciparum, PfDGFA at 2µM, 24h preincubation with gametocytes, replicate R2, read-out: % inhibition female (individual replicates) R2): 95.4%; inhibition at 2 µM ([2]; Plasmodium falciparum, PfDGFA at 2µM, 24h preincubation with gametocytes, replicate R3, read-out: % inhibition female (individual replicates) R3): 104%; inhibition at 2 µM ([2]; Plasmodium falciparum, PfDGFA at 2µM, 24h preincubation with gametocytes, replicate R4, read-out: % inhibition female (individual replicates) R4): 93%; IC50 ([2]; Plasmodium falciparum, PfDGFA, 24 h incubation with gametocytes before induction, female gamete readout, read-out: Female IC50): 570 nM; HitlevelF [2, 19]: 4 |
| CN1CCC(N2CCN(CCOc3cc(NC(=O)/C=C/c4ccccc4Cl)ccc3Br)CC2)CC1.O=C(O)C(=O)O [TCMDC-140962] | 15.3 | 25.8 | -8.5 | 17.6 | 8.6 | 14.8 | -6.3 | 11.7 | 0 | 0 | 0 | – |
| COc1cc2c(cc1OCCN1CCC(N)CC1)N(C(=O)/C=C/c1ccccc1Cl)CC2.Cl [TCMDC-140969] | 28.3 | 26.3 | 11.1 | 42.2 | 11.8 | 7.5 | 2.9 | 33.3 | 0 | 0 | 0 | – |

Reference: publication PMC10584170, “Machine learning-based phenotypic imaging to characterise the targetable biology of Plasmodium falciparum male gametocytes for the development of transmission-blocking antimalarials” (PLOS Pathogens, 2023)
